Data taken from patent US10993957B2 (NuCana plc, priority 2011, dated 2021).
Where two headings read alike, the source gives them in different places.

Experiments:
HeLa = experiment: Cytostatic assay, HeLa cells; assay type: cell-based; settings: for CC50: read-out: CC50 HeLa; for IC50: read-out: IC50 HeLa
Source text: (§1) The cell lines employed were L1210/0 (a leukemia cell line), FM3A/0 (a breast cancer cell line), Cem/0 (an acute lymphoblastic leukemia cell line) and HeLa (a cervical cell line).

L1210/TK^− = experiment: Cytostatic assay, thymidine kinase-deficient L1210/TK^− cells; assay type: cell-based, murine
Cem/TK^− = experiment: Cytostatic assay, thymidine kinase-deficient CEM/TK^− cells; assay type: cell-based, human; settings: for CC50: read-out: CC50 Cem/TK^−; for IC50: read-out: IC50 Cem/TK^−
L1210/0 = experiment: Cytostatic assay, L1210/0 cells; assay type: cell-based, murine
Source text: as §1

HeLa/TK^− = experiment: Cytostatic assay, HeLa/TK^− cells; assay type: cell-based; settings: for CC50: read-out: CC50 HeLa/TK^−; for IC50: read-out: IC50 HeLa/TK^−
Source text: as §1

L1210.Hyor = experiment: Cytostatic assay, Mycoplasma hyorhinis-infected L1210 cells; settings: for % Retention: CC50 L1210 × 100 ÷ CC50 L1210/Hyor; for CC50: L1210, read-out: CC50 L1210/Hyor
Source text: Murine leukaemia L1210/0 and human T-lymphocyte CEM/0 cells were obtained from the American Type Culture Collection (ATCC) (Rockville, Md.). Human glioblastoma U87 cells were kindly provided by Dr. E. Menue (Institut Pasteur, Paris, France). […] S. Eriksson (currently at Uppsala University, Uppsala, Sweden) and Prof A. Karlsson (Karolinska Institute, Stockholm, Sweden). […] All cells were maintained in Dulbecco's modified Eagle's medium (DMEM) (Invitrogen, Carlsbad, Calif.) with 10% foetal bovine serum (FBS) (Biochrom AG, Berlin, Germany), 10 mM Hepes and 1 mM Sodium Pyruvate (Invitrogen). Cells were grown at 37° C. in a humidified incubator with a gas phase of 5% CO2.
Monolayer cells (U87 and U87.Hyor) were seeded in 48-well microtiter plates (Nunc™, Roskilde, Denmark) at 10,000 cells/well. After 24 hours, an equal volume of fresh medium containing the test compounds was added. On day 5, cells were trypsinized and counted in a Coulter counter (Analis, Suarlée, Belgium). Suspension cells (L1210/0, L1210/TK^−, L1210.Hyor, CEM/0, CEM/TK^−) were seeded in 96-well microtiter plates (Nunc™) at 60,000 cells/well in the presence of a given amount of the test compounds. The cells were allowed to proliferate for 48 h (L1210) or 72 hours (CEM) and were then counted in a Coulter counter.
Samples were also assayed for their % retention of activity in mycoplasma infected cells.
The L1210/0 cell cultures were infected with the mycoplasma species M. hyorhinis (cells designated: L1210.Hyor).

Cem/0 = experiment: Cytostatic assay, CEM/0 cells; assay type: cell-based, human; settings: for CC50: read-out: CC50 Cem/0; for IC50: read-out: IC50 Cem/0
Source text: as §1

[1] = Mus musculus, L1210, read-out: IC50 L1210.Hyor
[2] = Mus musculus, L1210, Table 1, read-out: CC50 L1210/TK^−
[3] = Mus musculus, L1210, Table 6, read-out: IC50 L1210/TK^−
[4] = Homo sapiens, CEM-TK(-), Table 1
[5] = Homo sapiens, CEM-TK(-), Table 6
[6] = Mus musculus, L1210/0, Table 1, read-out: CC50 L1210/0
[7] = Mus musculus, L1210/0, Table 2, mycoplasma negative cells, read-out: CC50 L1210
[8] = Mus musculus, L1210/0, Table 6, read-out: IC50 L1210/0
[9] = Mus musculus, L1210/0, Table 7, read-out: IC50 L1210/0
[10] = Homo sapiens, CCRF-CEM, Table 1
[11] = Homo sapiens, CCRF-CEM, Table 6
[12] = Table 6, read-out: IC50 L1210/TK^−
[13] = Table 6, read-out: IC50 L1210/0
[14] = Table 7, read-out: IC50 L1210/0
[15] = read-out: IC50 L1210.Hyor, Table 7

| SMILES | % Retention (L1210.Hyor) [%] | CC50 (L1210.Hyor; Mus musculus) [nM] | IC50 (L1210.Hyor; [1]) [nM] | IC50(L1210.Hyor)/IC50(L1210/0) (L1210.Hyor; Table 7) | CC50 (HeLa; Homo sapiens, HeLa, Table 1) [nM] | IC50 (HeLa; Homo sapiens, HeLa, Table 6) [nM] | CC50 (L1210/TK^−; [2]) [nM] | IC50 (L1210/TK^−; [3]) [nM] | CC50 (Cem/TK^−; [4]) [nM] | IC50 (Cem/TK^−; [5]) [nM] | CC50 (L1210/0; [6]) [nM] | CC50 (L1210/0; [7]) [nM] | IC50 (HeLa; Table 6) [nM] | IC50 (L1210/TK^−; [12]) [nM] | IC50 (Cem/TK^−; Table 6) [nM] | IC50 (L1210/0; [13]) [nM] | IC50 (L1210/0; [14]) [nM] | IC50 (HeLa/TK^−; Table 6) [nM] | IC50 (L1210.Hyor; [15]) [nM] | IC50 (Cem/0; Table 6) [nM] | further results |
| --- | --- | --- | --- | --- | --- | --- | --- | --- | --- | --- | --- | --- | --- | --- | --- | --- | --- | --- | --- | --- | --- |
| O=C(OCc1ccccc1)C1CCCN1P(=O)(OC[C@H]1O[C@@H](n2cc(F)c(=O)[nH]c2=O)CC1O)Oc1ccccc1 (stereo partly drawn) [CPF 583, 5-Fluoro-2′-deoxyuridine-5′-O-[phenyl(benzoxy-L-prolinyl)] phosphate] | 3.3 | 11900 | 18000 ± 710 | 51 | – | – | – | – | – | – | – | – | – | – | – | – | – | – | – | – | CC50 (HeLa; Homo sapiens, HeLa): 1100 ± 400 nM; IC50 (HeLa; Homo sapiens, HeLa): 1100 ± 400 nM; CC50 (L1210/TK^−; Mus musculus, L1210, read-out: CC50 L1210/TK^−): 31000 ± 5000 nM; IC50 (L1210/TK^−; Mus musculus, L1210, read-out: IC50 L1210/TK^−): 31000 ± 5000 nM; CC50 (Cem/TK^−; Homo sapiens, CEM-TK(-)): 28000 ± 8000 nM; IC50 (Cem/TK^−; Homo sapiens, CEM-TK(-)): 28000 ± 8000 nM; CC50 (L1210/0; Mus musculus, L1210/0, read-out: CC50 L1210): 387 nM; CC50 (L1210/0; Mus musculus, L1210/0, read-out: CC50 L1210/0): 350 ± 70 nM; IC50 (L1210/0; Mus musculus, L1210/0, read-out: IC50 L1210/0, Table 6): 350 ± 70 nM; IC50 (L1210/0; Mus musculus, L1210/0, read-out: IC50 L1210/0, Table 7): 350 ± 22 nM; CC50 (HeLa/TK^−; Homo sapiens, HeLa): 20000 ± 11000 nM; IC50 (HeLa/TK^−; Homo sapiens, HeLa): 20000 ± 11000 nM; CC50 (Cem/0; Homo sapiens, CCRF-CEM): 980 ± 400 nM; IC50 (Cem/0; Homo sapiens, CCRF-CEM): 980 ± 400 nM |
| CSCC[C@H](NP(=O)(OC[C@H]1O[C@@H](n2cc(F)c(=O)[nH]c2=O)CC1O)Oc1ccccc1)C(=O)OCc1ccccc1 (stereo partly drawn) [CPF 586, 5-Fluoro-2′-deoxyuridine-5′-O-[phenyl-(benzoxy-L-methioninyl)] phosphate] | 11 | 870 | 760 ± 180 | 13 | 150 ± 20 | 150 ± 20 | 4100 ± 1200 | 4100 ± 1200 | 25000 | 25000 | 73 ± 35 | 100 | – | – | – | – | – | – | – | – | IC50 (L1210/0; [8]): 73 ± 35 nM; IC50 (L1210/0; [9]): 58 ± 35 nM; CC50 (HeLa/TK^−; Homo sapiens, HeLa, Table 1): 11000 ± 7000 nM; IC50 (HeLa/TK^−; Homo sapiens, HeLa, Table 6): 11000 ± 7000 nM; CC50 (Cem/0; [10]): 280 ± 30 nM; IC50 (Cem/0; [11]): 280 ± 30 nM |
| CCC(C)C(NP(=O)(OCC1OC(n2cc(F)c(=O)[nH]c2=O)CC1O)Oc1ccccc1)C(=O)OCc1ccccc1 (mixture of isomers) [Ph Bn Ile] | – | – | – | 2.2 | – | – | – | – | – | – | – | – | 710 ± 150 | 1100 ± 100 | 30000 ± 10000 | 76 ± 22 | 980 ± 390 | 25000 ± 11000 | 2200 ± 31 | 1000 ± 100 | – |
| C[C@H](NP(=O)(OC[C@H]1O[C@@H](n2cc(F)c(=O)[nH]c2=O)CC1O)Oc1cccc2ccccc12)C(=O)OC1CCOCC1 (stereo partly drawn) [CPF 580, 5-Fluoro-2′-deoxyuridine-5′-O-[1-naphthyl-(tetrahydropyroxy-L-alaninyl)]phosphate] | 12 | 410 | 480 ± 110 | 11.7 | 130 ± 40 | 130 ± 40 | 27000 ± 6000 | 27000 ± 6000 | 43000 ± 12000 | 43000 ± 12000 | 38 ± 14 | 48 | – | – | – | – | – | – | – | – | IC50 (L1210/0; [8]): 38 ± 14 nM; IC50 (L1210/0; [9]): 41 ± 2.8 nM; CC50 (HeLa/TK^−; Homo sapiens, HeLa, Table 1): 15000 ± 7000 nM; IC50 (HeLa/TK^−; Homo sapiens, HeLa, Table 6): 15000 ± 7000 nM; CC50 (Cem/0; [10]): 110 ± 20 nM; IC50 (Cem/0; [11]): 110 ± 20 nM |
| CC(C)CC(NP(=O)(OCC1OC(n2cc(F)c(=O)[nH]c2=O)CC1O)Oc1cccc2ccccc12)C(=O)OCc1ccccc1 (stereo not drawn) [Nap Bn Leu] | – | – | – | 1.7 | – | – | – | – | – | – | – | – | 80 ± 22 | 1500 ± 600 | 30000 ± 6000 | 28 ± 4 | 29 ± 2.1 | 9400 ± 1400 | 48 ± 20 | 130 | – |
| CCCCCOC(=O)C(Cc1ccccc1)NP(=O)(OCC1OC(n2cc(F)c(=O)[nH]c2=O)CC1O)Oc1cccc2ccccc12 (mixture of isomers) [Nap Pnt Phe] | – | – | – | 4.67 | – | – | – | – | – | – | – | – | 40 | 2900 ± 1200 | 8300 ± 1000 | 26 ± 1 | 30 ± 3.9 | 6600 ± 500 | 140 ± 7 | 100 | – |
